# From patent publication US20240327393A1 (SIRONAX LTD., priority 2021, published 2024)
# Test system: HT-1080 (ATCC, CCL-121) cells
# Assay: HT-1080 cell viability assay with ferroptosis inducer RSL3 (Cell Titer-Glo)
# Format: cell-based
# Conditions: Homo sapiens; HT-1080 cells treated with RSL3; 3-fold, 10-point dilution, 1.1 μM highest concentration; Table 2; read-out: EC50 (nM), ferroptosis inhibitory activity
# Procedure, shortened: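 EC50 was derived by sigmoidal dose-response regression of CellTiter-Glo luminescence viability, expressed relative to untreated wells. Compounds were tested in a ten-point, threefold dilution series (highest 1.1 μM) in the presence of the ferroptosis inducer RSL3. HT-1080 cells had been seeded at 6000 per well and grown overnight first.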
row,Structure (SMILES),EC50 [nM]
1,"CN1C(=O)COc2cc(Nc3cnc(N4CCC(C(F)(F)F)CC4)c(F)c3)ccc21 [Compound 27, 7-((5-fluoro-6-(4-(trifluoromethyl)piperidin-1-yl)pyridin-3-yl)amino)-4-methyl-2H-benzo[b][1,4]oxazin-3(4H)-one]",0.1 to 100
2,"CC1CCN(c2ccc(Nc3cc(Cl)c4c(c3)CN(C)C4)cc2)CC1 [Compound 267, 7-chloro-2-methyl-N-(4-(4-methylpiperidin-1-yl)phenyl)isoindolin-5-amine]",0.1 to 100
3,"CC1CN(c2ccc(Nc3ccc4c(c3)OCC(=O)N4C)cc2)CC(C)O1 (stereo not shown) [Compound 44, 7-((4-(2,6-dimethylmorpholino)phenyl)amino)-4-methyl-2H-benzo[b][1,4]oxazin-3(4H)-one]",0.1 to 100
4,"CC1CN(c2ccc(Nc3ccc4c(c3)OCC(=O)N4)cc2)CC(C)O1 (stereo not shown) [Compound 140, 7-((4-(2,6-dimethylmorpholino)phenyl)amino)-2H-benzo[b][1,4]oxazin-3(4H)-one]",0.1 to 100
5,"CN1Cc2cc(Nc3ccc(N4CCC(C(F)(F)F)CC4)cc3)cc(F)c2C1=O [Compound 202, 7-fluoro-2-methyl-5-((4-(4-(trifluoromethyl)piperidin-1-yl)phenyl)amino) isoindolin-1-one]",0.1 to 100
6,COC1(C(F)(F)F)CCN(c2c(F)cc(Nc3ccc4c(c3)OCC(=O)N4C)cc2F)CC1 [Compound 161],0.1 to 100
7,"CN(C)CCCN1Cc2cc(Nc3ccc(N4CCC(C(F)(F)F)CC4)cc3)ccc2C1=O [Compound 200, 2-(3-(dimethylamino)propyl)-5-((4-(4-(trifluoromethyl)piperidin-1-yl)phenyl)amino)isoindolin-1-one]",0.1 to 100
8,"CC1CCN(c2ccc(Nc3ccc4oc(=O)n(C)c4c3)cc2)CC1 [Compound 286, 3-methyl-5-((4-(4-methylpiperidin-1-yl)phenyl)amino)benzo[d]oxazol-2(3H)-one]",0.1 to 100

# Continued, values first:
row,EC50 [nM],Structure (SMILES)
1,0.1 to 100,"Cn1c(=O)n(C)c2cc(Nc3ccccc3)ccc21 [Compound 382, 1,3-dimethyl-5-(phenylamino)-1,3-dihydro-2H-benzo[d]imidazol-2-one]"
2,0.1 to 100,"CNCCCn1c(=O)oc2ccc(Nc3ccc(N4CCC(C(F)(F)F)CC4)cc3)cc21 [Compound 418, 3-(3-(methylamino)propyl)-5-((4-(4-(trifluoromethyl)piperidin-1-yl)phenyl)amino)benzo[d]oxazol-2(3H)-one]"

# Same assay, conditions: Homo sapiens; HT-1080 cells treated with RSL3; 3-fold, 10-point dilution, 1.1 μM highest concentration; Table 3; read-out: EC50 (nM), ferroptosis inhibitory activity
row,EC50 [nM],Structure (SMILES)
1,0.1 to 100,"CCC1CN(c2ccc(Nc3ccc4c(c3)OCC(=O)N4)c(C)n2)CCO1 (stereo not shown) [Compound 498, 7-((6-(2-ethylmorpholino)-2-methylpyridin-3-yl)amino)-2H-benzo[b][1,4]oxazin-3(4H)-one]"
2,0.1 to 100,"Cc1cc(N2CCC(F)(F)C2)ccc1Nc1ccc2c(c1)OCC(=O)N2 [Compound 597, 7-((4-(3,3-difluoropyrrolidin-1-yl)-2-methylphenyl)amino)-2H-benzo[b][1,4]oxazin-3(4H)-one]"
3,0.1 to 100,"Cc1nc(N2CCOC(C)(C)C2)ccc1Nc1ccc2c(c1)OCC(=O)N2 [Compound 500, 7-((6-(2,2-dimethylmorpholino)-2-methylpyridin-3-yl)amino)-2H-benzo[b][1,4]oxazin-3(4H)-one]"
4,0.1 to 100,"Cc1cc(N2CC(C)(F)C2)ccc1Nc1ccc2c(c1)OCC(=O)N2 [Compound 595, 7-((4-(3-fluoro-3-methylazetidin-1-yl)-2-methylphenyl)amino)-2H-benzo[b][1,4]oxazin-3(4H)-one]"
5,0.1 to 100,"CC[C@@H]1CN(c2ccc(Nc3ccc4c(c3)OCC(=O)N4)c(C)n2)C[C@H](CC)O1 [Compound 499, 7-((6-((2S,6R)-2,6-diethylmorpholino)-2-methylpyridin-3-yl)amino)-2H-benzo[b][1,4]oxazin-3(4H)-one]"
6,0.1 to 100,"CCC1CN(c2ccc(Nc3ccc4c(c3)OCCC(=O)N4)c(C)n2)CCO1 (stereo not shown) [Compound 557, 8-((6-(2-ethylmorpholino)-2-methylpyridin-3-yl)amino)-2,3-dihydrobenzo[b][1,4]oxazepin-4(5H)-one]"
